Experiments:
Ikaros = Ikaros (Homo sapiens, UniProt Q13422); experiment: Ikaros western blots in MM cells, T cells and B cells; format: cell-based; set-up: endogenous in cells; host or cells: U266, DF15 (and other MM lines), primary CD3+ T cells, primary CD19+ B cells; conditions: for Reduction of Ikaros levels compared with other treatment compounds for MM: MM cells
Experimental: U266 cells were obtained from ATCC (American Type Culture Collection, Manassas, Va., USA). DF15 cells were obtained from John Shaughnessy (University of Arkansas, Little Rock, Ark., USA). CD19+ B cells were purchased from HemaCare BioResearch Products (Van Nuys, Calif.). Cells were grown in RPMI-1640 medium (Cellgro, Manassas, Va.) containing 10% (V/V) heat-inactivated fetal bovine serum (Gibco, Grand Island, N.Y., USA) supplemented with 2 mM glutamine. […] Primary T cells were isolated from human leukocytes (Blood Center of New Jersey, East Orange, N.J.) by centrifugation through FICOLL® centrifugation medium following the ROSETETTESEP™ protocol (Stem Cell Technologies, Vancouver, Canada). […] Dexamethasone (Sigma, St. Louis, Mo.), melphalan (Sigma, St. Louis, Mo.) and bortezomib (Selleck Chemicals, Houston, Tex.) treated was for 6 hours. The final DMSO concentration is 0.1%. Cells were pre-treated with 10 μM MG-132 (Calbiochem Biochemicals, Billerica, Mass.) for 30 minutes prior to drug addition. Cells were harvested, washed in PBS and cell lysates separated on SDS-PAGE gels (Bio-Rad, Hercules, Calif.). Membranes were immunoblotted with anti-Aiolos (Santa Cruz Biotechnology, Dallas, Tex.), anti-Ikaros (Millipore, Billerica, Mass.) and anti-Actin (Sigma, St. Louis, Mo.; or LI-COR Biosciences, Lincoln, Nebr.) and secondary antibodies (LI-COR Biosciences, Lincoln, Nebr.). The blots were analyzed on ODESSEY® imager (LI-COR Biosciences, Lincoln, Nebr.).
Cell lysates were separated on a 10% TGX SDS-PAGE gel (Bio-Rad) and blotted for Aiolos (Santa Cruz, sc-10198), Ikaros (Millipore, ABD16) and Actin (Sigma, AC15).

[1] = system: Aiolos peptide containing lysine 203; experiment: UbiScan mass spectrometry of ubiquitylated proteins in multiple myeloma cells; format: cell-based
Excerpt: Mass spectrometry of ubiquitylated proteins (Ubiscan™): Cell Signaling Technology's UbiScan™ proteomics platform was used to identify and quantify differences in ubiquitination in primary human T cells untreated (Treatment 1) or treated with Treatment 2 or Treatment 3, and in MM cell lines treated with immunomodulatory compounds in the presence or absence of the proteasome inhibitor MG132. The UbiScan™ method combines the isolation of ubiquitinated peptides from protease digested protein extracts using CST's proprietary immunoaffinity purification method with the identification and quantitation of peptides by liquid chromatography, tandem mass spectrometry (LC-MS/MS). The quantification of ubiquitination is based on the abundance of the ubiquitinated peptides recovered by antibody immunoprecipitation. The abundance or intensity information for each ubiquitinated peptide is based on the peak height of that peptide measured in the MS1 channel. The confidence in the calculated fold change is dependent on a number of factors, an important one being the intensity or peak height of the ubiquitinated peptide. Samples were analyzed by LC-MS/MS on an ORBITRAP VELOS™ mass spectrometer. […] Label-free quantitation was performed by comparing peak intensities of the same peptide ion in each sample to generate their corresponding fold-changes. […]

[2] = 10 μM lenalidomide, 1 μM pomalidomide, U266, DF15 MM cells, primary CD3+ T cells, primary CD19+ B cells, cycloheximide treated U266
[3] = six MM cell lines (OPM-2, RPMI-8226, LP-1, U266, H929 and JJN3), various concentrations

Chain of Ikaros (Q13422 whole entry): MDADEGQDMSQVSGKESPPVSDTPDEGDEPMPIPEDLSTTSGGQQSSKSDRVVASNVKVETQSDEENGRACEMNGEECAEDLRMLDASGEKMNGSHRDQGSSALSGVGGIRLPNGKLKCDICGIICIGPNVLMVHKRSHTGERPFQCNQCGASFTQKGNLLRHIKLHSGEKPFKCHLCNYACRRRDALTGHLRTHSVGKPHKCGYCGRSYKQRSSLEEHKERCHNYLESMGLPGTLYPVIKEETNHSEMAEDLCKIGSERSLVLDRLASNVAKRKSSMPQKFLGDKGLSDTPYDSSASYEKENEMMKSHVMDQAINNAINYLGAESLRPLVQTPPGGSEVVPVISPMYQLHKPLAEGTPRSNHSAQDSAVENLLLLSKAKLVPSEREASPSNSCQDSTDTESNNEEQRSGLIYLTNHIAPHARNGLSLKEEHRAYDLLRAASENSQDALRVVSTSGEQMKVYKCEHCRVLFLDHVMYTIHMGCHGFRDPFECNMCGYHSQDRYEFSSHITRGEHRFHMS

SMILES	Ikaros expression (Ikaros; [2])	Reduction of Ikaros levels compared with other treatment compounds for MM (Ikaros)	Ikaros expression (Ikaros; [3])	Ubiquitination of Aiolos peptide containing lysine 203 [1]
Nc1cccc2c1CN(C1CCC(=O)NC1=O)C2=O (centres unmarked) [lenalidomide]	reduced the expression of Aiolos and Ikaros	unique to immunomodulatory compounds provided herein	significantly inhibited Aiolos and Ikaros expression	enhance the ubiquitination of Aiolos peptide containing lysine 203
Nc1cccc2c1C(=O)N(C1CCC(=O)NC1=O)C2=O (centres unmarked) [pomalidomide, reference compound]	reduced the expression of Aiolos and Ikaros	unique to immunomodulatory compounds provided herein	significantly inhibited Aiolos and Ikaros expression	enhance the ubiquitination of Aiolos peptide containing lysine 203
